Measured values: publication PMC12565300, “Novel Cyclic Tetrapeptides as Neuraminidase Inhibitors from a Sponge-Associated Penicillium sp. SCSIO41035” (Marine Drugs, 2025)
Where two headings read alike, the source gives them in different places.

Experiments:
neuraminidase = conditions: 100 µg/mL; Mean ± SD (n not given); fluorogenic substrate, 37 °C, 30 min; ex 322 nm, em 450 nm; compound in DMSO
Experimental: 4.8. Neuraminidase Inhibitory Assay
The neuraminidase inhibitory activity was evaluated using a Neuraminidase In-hibitor Screening Kit (Beyotime Institute of Biotechnology, Shanghai, China). Assays were carried out in 96-well plates. For each well, 70 μL of neuraminidase assay buffer, 10 μL of neuraminidase solution, and 10 μL of test compound (dissolved in DMSO; final con-centration 100 μg/mL) were gently mixed. The reaction was initiated by adding 10 μL of the fluorogenic substrate to each well, and the plate was incubated at 37 °C for 30 min. Fluorescence was measured on an EnSpire microplate reader with excitation at 322 nm and emission at 450 nm. The fluorescence intensity of neuraminidase was measured at several concentrations to generate a standard curve relating fluorescence signal to enzyme concentration. The fluorescence corresponding to the highest neuraminidase concentration was set as 0% inhibition. Each sample well initially contained neuraminidase at this concentration, and the residual neuraminidase concentration after the reaction was determined from the measured fluorescence using the standard-curve equation. The inhibition percentages were then calculated.

[1] = test system: two human carcinoma cell lines; conditions: ref [7], cited from earlier work
Description: Cyclic tetrapeptides are a class of natural products with significant potential in drug discovery, characterized by their unique structural features and diverse biological activities. Their cyclic structure confers stability and contributes to their potency, while their low molecular weight and favorable lipophilicity enhance drug-like properties. […] The presence of hydr ...

Molecule | Inhibition Rate (neuraminidase inhibitory activity) (neuraminidase) [%] | IC50 ([1]; first of two human carcinoma cell lines, read-out: IC50 against human carcinoma cell line (first of two, unnamed)) [µM] | IC50 ([1]; second of two human carcinoma cell lines, read-out: IC50 against human carcinoma cell line (second of two, unnamed)) [µM]
Penicopeptide E [Compound 4] | 74.01 ± 1.32 |  | 
CC12NC(=O)C(C[C@]13C(=O)Nc1ccccc13)n1c2nc2ccccc2c1=O (stereo partly drawn) [Compound 8, alantrypinone] | 43.85 ± 1.41 |  | 
Asperterrestide A |  | 6.2 | 6.4
CC(C)/C=C1\NC(=O)[C@H](CCC(N)=O)n2c1nc1ccccc1c2=O [Compound 10, aurantiomide C] | 67.54 ± 0.87 |  | 
Penicopeptide C [Compound 2] | 43.16 ± 1.23 |  | 
Penicopeptide H [Compound 7] | 57.78 ± 0.44 |  | 
Penicopeptide D [Compound 3] | 58.67 ± 3.51 |  | 
Penicopeptide G [Compound 6] | 63.65 ± 0.67 |  | 
Penicopeptide B [Compound 1] | 52.90 ± 0.37 |  | 
O=C1N[C@@]2(CO)c3nc4ccccc4c(=O)n3[C@@H]1C[C@@]21C(=O)Nc2ccccc21 [Compound 9, serantrypinone] | 51.67 ± 0.42 |  | 
Penicopeptide F [Compound 5] | 85.40 ± 0.85 |  | 
